Marks after values point to notes of the source that are not given here.
Key:
[1] = test system: C. elegans males; experiment: Retention assay; assay type: in vivo
In short: (§1)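 Sex-separated young adults (isolated at L4) placed equidistant from two 0.6 μL spots (cue vs control) on opposite sides of an E. coli OP50 lawn on NGM; 10 P. redivivus, 14 S. glaseri or 20 C. elegans males per trial. Video recorded 20 min at 1 frame/s; worm-pixel occupancy per region scored as adapted Chemotaxis Index, ≥3 trials averaged.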

[2] = test system: P. redivivus males and females; experiment: Retention assay; assay type: in vivo; details: only this concentration
In short: as §1

[3] = test system: S. glaseri males; experiment: Retention assay; assay type: in vivo; details: only this concentration
In short: as §1

[4] = test system: Several of the tested nematode species; experiment: Retention assay; assay type: in vivo; details: 1 nM, 1 μM and 1 mM tested
In short: as §1

[5] = test system: C. elegans; experiment: Ascaroside function (Table 12); assay type: in vivo, Caenorhabditis elegans; details: listed = has this function
In short: (§2)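 Ascarosides, alone or blended, administered to nematodes; behavior change scored qualitatively, with "strong" denoting a very strong effect.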

[6] = test system: Panagrellus redivivus; experiment: Ascaroside function (Table 12); assay type: in vivo; details: listed = has this function
In short: as §2

[7] = test system: S. glaseri; experiment: Ascaroside function (Table 12); assay type: in vivo; details: listed = has this function
In short: as §2

[8] = test system: Meloidogyne javanica, M. floridensis, M. incognita, M. hapla; experiment: Ascaroside function (Table 12); assay type: in vivo, Meloidogyne spp.
Procedure: (§3) Ascarosides ascr#10, ascr#16, ascr#18, ascr#20, and ascr#22 were detected in certain species of Meloidogyne plant parasitic nematodes (FIG. 83) and identified using high-resolution mass spectrometry (FIGS. 84-88).
(§4) Various ascarosides and ascaroside blends were administered to various nematodes described below (Table 12). […] A very strong result of affecting nematode behavior is designated in the table as “strong.”

[9] = test system: S. feltiae IJs; experiment: Dispersal assay; assay type: in vivo
Procedure: S. feltiae IJs were washed with MILLI-Q water three times and incubated in 6 cm petri dishes for […] with a small amount (4-5 ml) of MILLI-Q water. Nematodes were placed the following day on a 10.7 g/L agar with 1010 g/cm^2 gel strength (PhytoTechnology Lab. Shawnee Mission, Kans.). Nematode behavior was assayed on multiple plates with internal plate replicates to rule out the possibility that behavior was affected by plate composition. Approximately 300 IJs in 10 μl water were placed on an agar medium and the test compounds or extracts (1-2 μl) were placed into the nematode suspension. Upon absorption (˜15 minutes) of the liquid, the freely moving nematodes were video recorded for 5-10 minutes. Dispersal behavior is temperature and season dependent. During winter, the assay is effective at room temperature (22±1° C.). During summer, the assay requires a temperature controlled environment due to the effects on nematode behavior above 23° C.
Activity-guided fractionation was conducted as reported in Srinivasan et al., Nature 454:1115-18 (2008), which is hereby incorporated by reference in its entirety, with modifications. A total of 33 insect host cadavers (G. mellonella larvae) were placed into 70% EtOH and stored at −20° C. until extraction. […]

[10] = test system: Steinernema riobrave, S. diaprepesi, S carpocapse; experiment: Ascaroside function (Table 12); assay type: in vivo, Steinernema spp.; details: listed = has this function
Procedure: as §4

[11] = test system: S. feltiae; experiment: Ascaroside function (Table 12); assay type: in vivo, Steinernema feltiae; details: listed = has this function
Procedure: as §4

[12] = test system: Heterorhabditis bacteriophora, H. zealandica, H. floridensis; experiment: Ascaroside function (Table 12); assay type: in vivo, Heterorhabditis spp.; details: entries without asterisk
Procedure: as §3, §4

[13] = entries with asterisk (predicted)

SMILES	concentration of conditioned regions preferred [1] [µM]	concentration of conditioned regions preferred [2] [mM]	concentration of conditioned regions preferred [3] [mM]	preference for ascaroside-conditioned areas [4]	Attract Males [5]	Attract Males [6]	Attract Males [7]	predicted function in Meloidogyne species ([8]; alone, in concert, and/or in concert with ascr#9 or other ascarosides)	Dispersal (of dauer larvae, infectious juveniles) [8, 13]	Repel Females/Herm. [8, 13]	dispersal activity in combination with fractions B and C ([9]; ascr#9 40 pmol/μl, ascr#11 1.3 pmol/μL)	dispersal behavior of S. feltiae IJs ([9]; tested alone, physiologically relevant concentration)	Dispersal (of dauer larvae, infectious juveniles) ([8]; entries without asterisk)	Repel Females/Herm. ([8]; entries without asterisk)	Dispersal (of dauer larvae, infectious juveniles) [10]	Dispersal (of dauer larvae, infectious juveniles) [11]	Dispersal (of dauer larvae, infectious juveniles) [12]
CC1O[C@@H](O[C@H](C)CCCCCCC(=O)O)C(O)C[C@H]1O (some centres unmarked) [ascr#10]	1	1	1	preferred areas conditioned	ascr#10	ascr#10	ascr#10	act as dispersants and repellants	ascr#10*	ascr#10*	–	–	–	–	–	–	–
C[C@H](CCC(=O)O)O[C@@H]1O[C@@H](C)[C@H](O)C[C@H]1O [ascr#9]	–	–	–	preferred areas conditioned	ascr#9	ascr#9	–	–	–	–	restored the original dispersal activity	did not have activity by themselves	ascr#9	ascr#9	ascr#9	ascr#9	ascr#9

Source: patent publication US9487551B2, “Small molecule compounds that control mammal-pathogenic nematodes” (California Institute of Technology, priority 2011, dated 2016)
